We go through eleven compounds from ChEMBL document CHEMBL3102770, “Development and pharmacological characterization of conformationally constrained urotensin II-related peptide agonists” (J Med Chem, 2013).

For experiment [1], the target named is T1, Urotensin-2 receptor (Rattus norvegicus) (UniProt P49684).
T1 sequence (whole entry): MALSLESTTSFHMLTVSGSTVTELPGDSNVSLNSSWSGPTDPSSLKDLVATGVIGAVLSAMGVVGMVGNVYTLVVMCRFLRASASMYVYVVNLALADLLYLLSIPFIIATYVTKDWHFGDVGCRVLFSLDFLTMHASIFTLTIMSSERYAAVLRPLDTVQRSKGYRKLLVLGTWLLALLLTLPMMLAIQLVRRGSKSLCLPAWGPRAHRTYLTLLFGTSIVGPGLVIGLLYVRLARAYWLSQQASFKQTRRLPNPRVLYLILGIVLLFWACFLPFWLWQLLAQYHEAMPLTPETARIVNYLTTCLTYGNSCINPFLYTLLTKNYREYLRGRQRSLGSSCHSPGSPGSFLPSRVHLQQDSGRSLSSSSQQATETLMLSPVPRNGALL
Put plainly: Agonist activity at urotensin-2 receptor in Sprague-Dawley rat aortic rings assessed as KCl-induced vasoconstriction at 3 X 10^-11 to 3 X 10^-6 M relative to control.

Experiment [2] addresses T2, Urotensin-2 receptor (Homo sapiens, UniProt Q9UKP6).
T2 sequence (Q9UKP6 whole entry): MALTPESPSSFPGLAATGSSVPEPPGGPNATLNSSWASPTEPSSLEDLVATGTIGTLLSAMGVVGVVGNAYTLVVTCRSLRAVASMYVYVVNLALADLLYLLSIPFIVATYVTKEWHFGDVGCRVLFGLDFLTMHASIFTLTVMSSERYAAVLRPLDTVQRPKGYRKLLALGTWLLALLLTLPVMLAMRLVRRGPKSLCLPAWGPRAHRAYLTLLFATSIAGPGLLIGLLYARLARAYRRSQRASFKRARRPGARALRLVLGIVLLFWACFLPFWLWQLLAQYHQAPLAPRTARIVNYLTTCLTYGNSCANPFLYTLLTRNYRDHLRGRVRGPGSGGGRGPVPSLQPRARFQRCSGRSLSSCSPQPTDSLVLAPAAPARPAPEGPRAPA
Put plainly: Displacement of [125I]-Urotensin-2 from human GPR14 expressed in CHO cells after 90 mins by gamma counting analysis. Format: cell-based. (In general: In a radioligand displacement assay an active substance lowers the binding of a labelled ligand.)

For experiment [3], the target named is T3, Urotensin-2 receptor (Rattus norvegicus, UniProt P49684).
T3 sequence (P49684 whole entry): T1 sequence (whole entry)
Put plainly: Agonist activity at urotensin-2 receptor in Sprague-Dawley rat aortic rings assessed as KCl-induced vasoconstriction.

Active and inactive are the calls of the source. The calls are words filed in the database; no cut-off is given here.

Consider `CC(C)[C@H](NC(=O)[C@@H]1CSSC[C@H](NC(=O)[C@H](C)N)C(=O)N[C@@H](Cc2ccccc2)C(=O)N[C@@H]2Cc3c([nH]c4ccccc34)CN(C2=O)[C@@H](CCCCN)C(=O)N[C@@H](Cc2ccc(O)cc2)C(=O)N1)C(=O)O`, for which the Emax in experiment [1] came out at 148%. For the same compound, the IC50 in experiment [2] (read-out: IC50) came out at 60 nM. Besides, the EC50 in experiment [3] (read-out: EC50) was 159 nM; in experiment [3] (read-out: pEC50 (converted)), 162 nM.

Take `CC(C)[C@H](NC(=O)[C@@H]1CSSC[C@H](NC(=O)[C@H](C)N)C(=O)N[C@@H](Cc2ccccc2)C(=O)N[C@@H](C(C)(C)C)C(=O)N[C@@H](CCCCN)C(=O)N[C@@H](Cc2ccc(O)cc2)C(=O)N1)C(=O)O`: the Emax result in experiment [1] is “inactive”. Further, the IC50 in experiment [2] (read-out: pIC50 (converted)) is above 10000 nM. In addition, the EC50 result in experiment [3] is recorded as “Not Active”.

`CC(C)[C@H](NC(=O)[C@@H]1CSSC[C@H](NC(=O)[C@H](C)N)C(=O)N[C@@H](Cc2ccccc2)C(=O)N2Cc3[nH]c4ccccc4c3C[C@H]2C(=O)N[C@@H](CCCCN)C(=O)N[C@@H](Cc2ccc(O)cc2)C(=O)N1)C(=O)O`: the Emax in experiment [1] is 139%.

Regarding `CC(C)[C@H](NC(=O)[C@@H]1CSSC[C@H](NC(=O)[C@H](C)N)C(=O)N[C@@H](Cc2ccccc2)C(=O)N[C@H](c2ccccc2)C(=O)N[C@@H](CCCCN)C(=O)N[C@@H](Cc2ccc(O)cc2)C(=O)N1)C(=O)O`, the Emax in experiment [1] was 116%. The IC50 in experiment [2] (read-out: pIC50 (converted)) was 27.5 nM. For the same compound, the EC50 in experiment [3] (read-out: EC50) worked out at 117 nM.

On to `CC(C)[C@H](NC(=O)[C@@H]1CSSC(C)(C)[C@@H](NC(=O)[C@H](C)N)C(=O)N[C@@H](Cc2ccccc2)C(=O)N2CCc3ccccc3[C@H]2C(=O)N[C@@H](CCCCN)C(=O)N[C@@H](Cc2ccc(O)cc2)C(=O)N1)C(=O)O`, for which the Emax result in experiment [1] was “inactive”.

For `CC(C)[C@H](NC(=O)[C@@H]1CSSC[C@H](NC(=O)[C@H](C)N)C(=O)N[C@@H](Cc2ccccc2)C(=O)N2Cc3ccccc3C[C@@H]2C(=O)N[C@@H](CCCCN)C(=O)N[C@@H](Cc2ccc(O)cc2)C(=O)N1)C(=O)O`, the maximum response (Emax) in experiment [1] was 128%. In addition, the EC50 in experiment [3] (read-out: EC50) was 259 nM; in experiment [3] (read-out: pEC50 (converted)), 832 nM.

Regarding `CC(C)[C@H](NC(=O)[C@@H]1CSSC[C@H](NC(=O)[C@H](C)N)C(=O)N[C@@H](Cc2ccccc2)C(=O)N[C@@H](Cc2c[nH]c3ccccc23)C(=O)N[C@@H](CCCCN)C(=O)N[C@@H](Cc2ccc(O)cc2)C(=O)N1)C(=O)O`, the Emax in experiment [1] worked out at 100%. Besides, the EC50 is 7 nM in experiment [3] (read-out: EC50) and 8.13 nM in experiment [3] (read-out: pEC50 (converted)).

As for `CC(C)[C@H](NC(=O)[C@@H]1CSSC[C@H](NC(=O)[C@H](CC(=O)O)NC(=O)[C@@H]2CCCN2C(=O)[C@@H](NC(=O)[C@@H](N)CCC(=O)O)[C@@H](C)O)C(=O)N[C@@H](Cc2ccccc2)C(=O)N[C@@H](Cc2c[nH]c3ccccc23)C(=O)N[C@@H](CCCCN)C(=O)N[C@@H](Cc2ccc(O)cc2)C(=O)N1)C(=O)O` [HUMAN UROTENSIN II], the values for the EC50 in experiment [3] (read-out: EC50) and in experiment [3] (read-out: pEC50 (converted)) were 1 nM and 0.832 nM, respectively.

As for `CC(C)[C@H](NC(=O)[C@@H]1CSSC[C@@H](NC(=O)[C@H](CC(=O)O)NC(=O)[C@H]2CCCN2C(=O)[C@@H](NC(=O)[C@@H](N)CCC(=O)O)[C@@H](C)O)C(=O)N[C@H](Cc2ccccc2)C(=O)N[C@@H](Cc2c[nH]c3ccccc23)C(=O)N[C@H](CCCCN)C(=O)N[C@@H](Cc2ccc(O)cc2)C(=O)N1)C(=O)O`, in experiment [1], the Emax worked out at 117%.

Turning to `CC(C)[C@H](NC(=O)[C@@H]1CSSC(C)(C)[C@H](NC(=O)[C@H](C)N)C(=O)N[C@@H](Cc2ccccc2)C(=O)N2CCc3ccccc3[C@H]2C(=O)N[C@@H](CCCCN)C(=O)N[C@@H](Cc2ccc(O)cc2)C(=O)N1)C(=O)O`, the EC50 entry in experiment [3] is listed as “Not Active”.

In the case of `CC(C)[C@H](NC(=O)[C@@H]1CSSC[C@H](NC(=O)[C@H](C)N)C(=O)N[C@@H](Cc2ccccc2)C(=O)N[C@@H](c2ccccc2)C(=O)N[C@@H](CCCCN)C(=O)N[C@@H](Cc2ccc(O)cc2)C(=O)N1)C(=O)O`, the Emax in experiment [1] amounted to 102%. Also, the EC50 in experiment [3] (read-out: EC50) was found to be 251 nM.

As a reminder, the Emax is the maximal effect, on the per cent scale that the assay sets.
